# Reference: the supplement of paper PMC4862054
# How the values were obtained:
# Conditions in all cases: incubation time: 72 h
# MDA-MB-453 [1] = assay: normalised viability (% of control), CellTiter-Blue; higher = more viable cells (100 = DMSO, 0 = benzethonium chloride kill control)
# Outline: (§1)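 The reported quantity is normalised viability at a single listed concentration of the series. Compound in 5 µl medium was pre-dispensed into 384-well plates and 20 µl of breast cancer cell suspension was added for 72 h. A 2 h, 37 °C CellTiter-Blue step (2.5 µl) preceded fluorescence reading at 560/590 nm, and plates were normalised to vehicle (100) and a positive kill control (0).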
# MDA-MB-231 [2] = assay: as above
# Outline: as §1
# MDA-MB-436 [3] = assay: as above
# Outline: as §1
# CAL-148 [4] = assay: as above
# Outline: as §1
# BT-549 [5] = assay: as above
# Outline: as §1
# MFM-223 [6] = assay: as above
# Outline: as §1
# HCC1937 [7] = assay: as above
# Outline: as §1
# HCC1599 [8] = assay: as above
# Outline: as §1
# Hs578T [9] = assay: as above
# Outline: as §1
# HDQ-P1 [10] = assay: as above
# Outline: as §1
# HCC1143 [11] = assay: as above
# Outline: as §1
# DU-4475 [12] = assay: as above
# Outline: as §1
# CAL-85-1 [13] = assay: as above
# Outline: as §1
# SK-BR-3 [14] = assay: as above
# Outline: as §1
# CAL-51 [15] = assay: as above
# Outline: as §1
# BT-474 [16] = assay: as above
# Outline: as §1
# CAL-120 [17] = assay: as above
# Outline: as §1
# MDA-MB-468 [18] = assay: as above
# Outline: as §1
# MDA-MB-453 [19] = assay: normalised response (% of control), CellTiter-Glo; higher = more viable cells (100 = DMSO, 0 = benzethonium chloride kill control)
# Outline: (§2)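 Plates were normalised with 0.1 % DMSO as 100 and a positive kill control as 0. Breast cancer cell lines in 20 µl suspension had been seeded into 384-well plates with compound at 5 concentrations in 10-fold steps over a compound-specific 10,000-fold range, incubated 72 h, and read for CellTox Green fluorescence (485/520 nm) followed by CellTiter-Glo luminescence. Each value is the normalised signal at a single concentration.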
# MDA-MB-231 [20] = assay: as above
# Outline: as §2
# MDA-MB-436 [21] = assay: as above
# Outline: as §2
# CAL-148 [22] = assay: as above
# Outline: as §2
# BT-549 [23] = assay: as above
# Outline: as §2
# MFM-223 [24] = assay: as above
# Outline: as §2
# HCC1937 [25] = assay: as above
# Outline: as §2
# HCC1599 [26] = assay: as above
# Outline: as §2
# Hs578T [27] = assay: as above
# Outline: as §2
# HDQ-P1 [28] = assay: as above
# Outline: as §2
# HCC1143 [29] = assay: as above
# Outline: as §2
# DU-4475 [30] = assay: as above
# Outline: as §2
# MCF-10A = assay: as above
# Outline: as §2
# CAL-85-1 [31] = assay: as above
# Outline: as §2
# SK-BR-3 [32] = assay: as above
# Outline: as §2
# CAL-51 [33] = assay: as above
# Outline: as §2
# BT-474 [34] = assay: as above
# Outline: as §2
# CAL-120 [35] = assay: as above
# Outline: as §2
# MDA-MB-468 [36] = assay: as above
# Outline: as §2
Structure (SMILES),normalised viability (MDA-MB-453 [1]),normalised viability (MDA-MB-231 [2]),normalised viability (MDA-MB-436 [3]),normalised viability (CAL-148 [4]),normalised viability (BT-549 [5]),normalised viability (MFM-223 [6]),normalised viability (HCC1937 [7]),normalised viability (HCC1599 [8]),normalised viability (Hs578T [9]),normalised viability (HDQ-P1 [10]),normalised viability (HCC1143 [11]),normalised viability (DU-4475 [12]),normalised viability (CAL-85-1 [13]),normalised viability (SK-BR-3 [14]),normalised viability (CAL-51 [15]),normalised viability (BT-474 [16]),normalised viability (CAL-120 [17]),normalised viability (MDA-MB-468 [18]),normalised response (MDA-MB-453 [19]),normalised response (MDA-MB-231 [20]),normalised response (MDA-MB-436 [21]),normalised response (CAL-148 [22]),normalised response (BT-549 [23]),normalised response (MFM-223 [24]),normalised response (HCC1937 [25]),normalised response (HCC1599 [26]),normalised response (Hs578T [27]),normalised response (HDQ-P1 [28]),normalised response (HCC1143 [29]),normalised response (DU-4475 [30]),normalised response (MCF-10A),normalised response (CAL-85-1 [31]),normalised response (SK-BR-3 [32]),normalised response (CAL-51 [33]),normalised response (BT-474 [34]),normalised response (CAL-120 [35]),normalised response (MDA-MB-468 [36])
O=c1[nH]c(=O)n([C@H]2C[C@H](O)[C@@H](CO)O2)cc1F [Floxuridine] (1 nM),108%,99%,112%,102%,123%,103%,89.2%,95.7%,130%,108%,98.6%,104%,94.1%,97.2%,98.2%,91.2%,100%,99.9%,104%,107%,132%,97.7%,102%,110%,99.1%,96.9%,103%,102%,97.6%,103%,115%,95.9%,107%,120%,104%,101%,105%
O=c1[nH]cc(F)c(=O)[nH]1 [Fluorouracil] (1 nM),115%,112%,94.8%,109%,114%,106%,90.6%,80.1%,122%,110%,102%,107%,106%,103%,100%,107%,103%,113%,110%,106%,119%,105%,107%,110%,95.1%,95.8%,106%,105%,102%,100%,113%,105%,108%,124%,99.5%,108%,97.2%
C[C@@H]1C=C2C(=O)O[C@@H]3CC[C@H](C1)[C@]23O [Galiellalactone] (5 nM),97%,93.7%,94.6%,115%,112%,102%,84.3%,88.1%,109%,120%,98.9%,104%,94.9%,94%,106%,105%,81.3%,96.7%,108%,103%,107%,107%,101%,107%,98%,102%,107%,107%,105%,97.2%,111%,98.1%,108%,104%,106%,105%,108%
